Test results published in paper PMC10761396, “Evaluation of new alternative methods for the identification of estrogenic, androgenic and steroidogenic effects: a comparative in vitro/in silico study” (Archives of Toxicology, 2023).
Entries after “also recorded” stand apart in the source; their conditions may differ. Like-named read-outs stand apart in the source and are kept apart here.

Key:
human AR = human AR (Homo sapiens, UniProt P10275); assay: AR radioligand ([3H]methyltrienolone) receptor-binding assay
Experimental: Binding to ER and AR was conducted using standard methods for radioligand assays (Kurata et al. [2005]; Zava et al. [1979]).
The chemicals were tested for their ability to bind to different targets. In radioligand assays, targets included the binding affinity to human (non-selective) ER and human AR (Kurata et al. 2005; Zava et al. 1979). Chemicals were incubated at 10 µM with cells overexpressing ER or AR for 24 h at 4°C, after which, the binding of the radiolabeled ligand ([^3H]estradiol for ER and [^3H]methyltrienolone for AR) was measured by liquid scintillation counting. An increase or decrease higher than 50% were considered to represent significant effects. […] Receptor binding was calculated as a % inhibition of the binding of a radioactively labeled ligand specific for each target.
Each test chemical was tested in a single assay in duplicate.

ER [1] = assay: ToxCast ER assays and final ToxCast call; settings: for Final "true" call (ToxCast) ER: from active ToxCast assays, cytotoxicity, ToxCast Pathway Model and CERAPP Potency Level; for ToxCast result (ER): overall call from ToxCast data (Supplementary Table 2)
Text: A rich source of data can be found in the EPA's ToxCast database (US EPA). This contains ED data for ~ 1800 chemicals in more than 700 high-throughput assay endpoints that cover a range of high-level cell responses. The US EPA is running an Endocrine Disruption Screening Program (EDSP), with the aim of prioritising chemicals using high-throughput screening methods and computational toxicology approaches to evaluate thousands of chemicals for ED activities. The OECD framework for ED assessment (OECD [2018]) requires animal testing at higher levels, where relevant in vitro alternatives are missing e.g. for developmental, reproductive, neurological and immune effects. However, such follow-up testing is not possible for the cosmetics industry especially in the EU due to the complete animal testing ban which came into force in March 2013 (EU [2009]). Even for other industries, animal models are not suitable for assessing ED effects due to issues relating to ethics, capacity, speed and relevance (Patisaul et al. [2018]). Therefore, chemicals which cannot be evaluated using in vivo method must be assessed using alternative methods e.g. in silico and in vitro methods listed in Levels 1 and 2 of the framework described in the OECD 150 test guideline (OECD [2018]).
The performance of different in silico models for ED effects tends to be evaluated on single model for a single effect, such as ER or AR binding, agonism or antagonism (normally by the developer), or a limited number of models using multiple chemicals (Weyrich et al. [2022]). Multi-organisation collaborations have also evaluated multiple models for a specific effect e.g. ER (Mansouri et al. [2016]) and AR (Mansouri et al. [2020]) effects. Therefore, we have conducted a side-by-side comparison of multiple different in silico models covering three pathways in ED, namely ER, AR and aromatase inhibition and compared these with ToxCast-derived final calls, as well as with results from in vitro assays. The efficiency of the in silico models was evaluated as a metric for the ability of the in silico model to generate concrete predictions. […] In vivo data were available for some but not all chemicals; therefore, an evaluation of the performance of the methods was made by comparing the derived overall calls from in silico models with those from the ToxCast database. The final call for each chemical evaluated in the ToxCast assays was made by considering the active-flagged assays and the corresponding cytotoxicity levels, the ToxCast Pathway Model (Browne et al. [2015]) and the CERAPP Potency Level (Mansouri et al. [2016]) for ER effects and the ToxCast Pathway Model (Kleinstreuer et al. [2017]) for AR effects (see Online Resource 1 Supplementary Tables 2, 4 and 6 for the outcome of the ER, AR and aromatase ToxCast assays, additional literature and final calls for each chemical and target).

ER [2] = tested on: ER; set-up: method as in US EPA ToxCast; settings: ref US EPA ToxCast, cited from earlier work; for ToxCast 1: (Active assays), ER assay listed as active: each listed assay name = active-flagged assay
AR [3] = tested on: AR; set-up: method as in ToxCast; settings: ref ToxCast, cited from earlier work; for ToxCast conclusion from assays result: AR sheet; for ToxCast 1: (Active assays), number of positive assays / assays run: ToxCast AR assays
aromatase = tested on: aromatase; set-up: method as in US EPA ToxCast; settings: ref US EPA ToxCast, cited from earlier work; for ToxCast (assays Comments), efficacy: borderline: less than 50% efficacy
AR [4] = target: T1, AR (Homo sapiens, UniProt P10275); assay: (anti-)AR CALUX receptor transactivation assay; type: cell-based; set-up: expressed in transfected cells; host or cells: CALUX cells (U2-OS is named only for the cytotoxicity CALUX)
T1 sequence (P10275 1-920): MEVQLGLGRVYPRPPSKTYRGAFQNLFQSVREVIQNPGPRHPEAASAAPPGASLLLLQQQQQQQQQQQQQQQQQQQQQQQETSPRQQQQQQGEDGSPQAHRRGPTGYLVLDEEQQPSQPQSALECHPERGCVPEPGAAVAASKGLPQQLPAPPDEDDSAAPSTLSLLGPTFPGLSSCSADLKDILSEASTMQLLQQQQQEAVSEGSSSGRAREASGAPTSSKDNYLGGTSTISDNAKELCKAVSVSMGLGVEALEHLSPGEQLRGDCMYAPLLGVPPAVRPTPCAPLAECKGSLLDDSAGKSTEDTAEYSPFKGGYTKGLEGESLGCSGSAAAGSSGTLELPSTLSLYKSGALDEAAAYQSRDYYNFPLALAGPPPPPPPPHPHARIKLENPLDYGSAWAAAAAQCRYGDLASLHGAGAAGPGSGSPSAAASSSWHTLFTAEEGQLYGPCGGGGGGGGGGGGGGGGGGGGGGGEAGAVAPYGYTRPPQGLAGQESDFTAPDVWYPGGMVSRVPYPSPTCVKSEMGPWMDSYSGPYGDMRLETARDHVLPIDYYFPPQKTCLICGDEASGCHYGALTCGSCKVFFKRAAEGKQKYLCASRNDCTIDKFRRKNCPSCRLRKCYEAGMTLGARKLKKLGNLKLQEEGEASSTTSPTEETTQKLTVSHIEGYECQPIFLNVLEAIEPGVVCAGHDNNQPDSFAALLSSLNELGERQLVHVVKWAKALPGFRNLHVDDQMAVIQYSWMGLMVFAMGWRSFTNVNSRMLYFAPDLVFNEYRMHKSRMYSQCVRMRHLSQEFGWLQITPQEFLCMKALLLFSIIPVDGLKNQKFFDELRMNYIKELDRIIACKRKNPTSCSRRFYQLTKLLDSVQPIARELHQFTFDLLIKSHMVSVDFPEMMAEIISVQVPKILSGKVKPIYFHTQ
Experimental: The human CALUX® assays were used to measure the impact of test compounds on estrogen and androgen pathways. […] Chemicals can activate (or inactivate, in the case of an antagonistic activity) a ligand-specific pathway by binding to the receptor (ER, AR), after which the receptor-ligand complex binds to specific DNA REs […], resulting in increased (or decreased) cellular expression of a marker protein (e.g., luciferase).
Chemicals were dissolved and diluted in DMSO. […] The cytotoxicity of each test chemical was assessed using the U2-OS based cytotoxicity CALUX bioassay. Concentrations causing >20% reduction of luminescence were considered cytotoxic. […] Luciferase production was quantified by measuring luminescence following addition of luciferin. For antagonist assays, a fixed concentration of receptor agonist was co-incubated with a range of concentrations of the test chemical. […] For the AR assays, dihydrotestosterone was the positive control for agonistic effects and flutamide was the positive control for antagonist effects.
Each test chemical was tested in triplicates in two independent experiments.

AR [5] = settings: AR pathway model; ref Kleinstreuer et al (2017) 10.1021/acs.chemrestox.6b00347; cited from earlier work

| Compound | AR binding outcome (human AR) | Final "true" call (ToxCast) ER (ER [1]) | ToxCast 1: (Active assays), positive/total ER assays (ER [2]) | ToxCast conclusion from assays result (ER [2]) | ToxCast conclusion from assays result (AR [3]) | ToxCast 1: (Active assays), number of positive assays / assays run (AR [3]) | ToxCast (Aromatase assays), positive/total (aromatase) | outcome in the AR transactivation assay (AR [4]) | ToxCast result (ER) (ER [1]) | ToxCast Pathway Model (AUC) (AR [5]) | further results |
| --- | --- | --- | --- | --- | --- | --- | --- | --- | --- | --- | --- |
| CCCCN(CCCC)c1ccc(C(=O)c2ccccc2C(=O)O)c(O)c1 [DBABA, 2-[4-(dibutylamino)-2-hydroxybenzoyl]benzoic acid] | did not bind to the AR | Inconclusive | 2/6 positive | Endocrine Disruption Potential.Significant Estrogen Receptor activity seen | Endocrine Disruption Potential.Significant Estrogen Receptor activity seen | 2/8 positive | 0/2 positive | negative | – | – | ToxCast 1: (Active assays), ER assay listed as active (ER [2]; assay TOX21_ERa_BLA_Antagonist_ratio): TOX21_ERa_BLA_Antagonist_ratio; ToxCast 1: (Active assays), ER assay listed as active (ER [2]; assay TOX21_ERa_BLA_Antagonist_viability): TOX21_ERa_BLA_Antagonist_viability; ToxCast 1: (assays Comments) (AR [3]; TOX21_AR_BLA_Antagonist_ratio): Only highest concentration above the baseline; efficacy (assays Comments) (AR [3]; TOX21_AR_BLA_Antagonist_viability): Boarderline: less than 50% efficacy (26.5%) |
| C[C@]12CCC(=O)C[C@@H]1CC[C@@H]1[C@@H]2CC[C@@]2(C)[C@H]1CC[C@]2(C)O [Mestanolone, mestanolone, reference compound] | – | Positive for agonism and antagonism | 2/6 positive | Endocrine Disruption Potential.Significant Estrogen Receptor activity seen | Endocrine Disruption Potential.Significant Estrogen Receptor activity seen | 2/6 positive | 0/2 positive | – | ER agonist and antagonist | – | ToxCast 1: (Comments) (ER [2]; for the assay named in the same line): High active; ToxCast 1: (assays Comments) (AR [3]; TOX21_AR_BLA_Agonist_ratio): High active; ToxCast 1: (assays Comments) (AR [3]; TOX21_AR_LUC_MDAKB2_Agonist): High active |
| CC(C)(C)CC(C)(C)c1ccc(O)cc1 [4-TO, 4-tert-octylphenol] | significant binding | Positive for agonism | 20/21 positive | Endocrine Disruption Potential.Significant Estrogen Receptor activity seen | Endocrine Disruption Potential.Significant Estrogen Receptor activity seen | – | 2/2 positive | – | ER agonist only | AUC = 0.23 as agonist, then there is a significant interaction. | inhibition at 10 µM (human AR; read-out: inhibition of control specific binding to the AR): 10%; ToxCast (assays Comments), efficacy (aromatase): 31.35%; ToxCast (assays Comments), efficacy (aromatase; listed as 4-tert-Octylphenol): Boarderline: less than 50% efficacy (31.35%); ToxCast (Aromatase assays), assay listed as active (aromatase; each listed assay name = active assay): TOX21_Aromatase_Inhibition; also recorded: TOX21_Aromatase_Inhibition_viability; LEC, AR antagonism (AR [4]): 0.44 µM |
| O=c1c(-c2ccc(O)cc2)coc2cc(O)ccc12 [Daidzein, daidzein] | did not bind to the AR | Positive for agonism and antagonism | – | Endocrine Disruption Potential.Significant Estrogen Receptor activity seen | Endocrine Disruption Potential.Significant Estrogen Receptor activity seen | 2/15 positive | 0/2 positive | negative | ER agonist and antagonist | AUC = 0, then there is no significant interaction. | efficacy (assays Comments) (AR [3]; TOX21_AR_LUC_MDAKB2_Agonist): Boarderline: less than 50% efficacy (20.8%) |
